This data set deals with rodent lifetime carcinogenesis bioassay, tumor incidence TD50. In words: chronic cancer bioassays in animals – CPDB, compiled studies (AID 1745844).

Active and inactive are the calls of the source. How the calls were made is not given here.

What is called TD50 is the 50% point of the dose-response relation for the toxic effect studied. For `CN(C)NC(=O)CCC(=O)O`, the TD50 reads like this: (mouse, strain B6C3F1, females, in feed, site: any site (literature study), lesion: several types, types named in the paper, dosed 104 weeks, study length 105 weeks) 56400 mg/kg/day (inactive); (mouse, strain B6C3F1, females, in feed, site: liver, lesion: hepatocellular adenoma + hepatocellular carcinoma + neoplastic nodule, dosed 104 weeks, study length 105 weeks) 6820 mg/kg/day; (mouse, strain B6C3F1, females, in feed, site: lung, lesion: alveolar/bronchiolar adenoma + alveolar/bronchiolar carcinoma, dosed 104 weeks, study length 105 weeks) 2920 mg/kg/day; (mouse, strain B6C3F1, males, in feed, site: any site (literature study), lesion: several types, types named in the paper, dosed 104 weeks, study length 105 weeks) 1500 mg/kg/day; (mouse, strain B6C3F1, males, in feed, site: liver, lesion: hepatocellular adenoma + hepatocellular carcinoma + neoplastic nodule, dosed 104 weeks, study length 105 weeks) 2450 mg/kg/day; (mouse, strain B6C3F1, males, in feed, site: liver, lesion: hepatocellular adenoma + hepatocellular carcinoma, dosed 104 weeks, study length 105 weeks) 2450 mg/kg/day. The TD50 (mouse, strain B6C3F1, males, in feed, site: liver, lesion: hepatocellular carcinoma, dosed 104 weeks, study length 105 weeks) is 2150 mg/kg/day; the TD50 (mouse, strain B6C3F1, males, in feed, site: lung, lesion: alveolar/bronchiolar adenoma + alveolar/bronchiolar carcinoma, dosed 104 weeks, study length 105 weeks) came out at 3400 mg/kg/day; the TD50 (mouse, strain Swiss albino, females, in drinking water, site: blood vessels, lesion: several types, types named in the paper, dosed 92 weeks, study length 92 weeks) was 1240 mg/kg/day; the TD50 (mouse, strain Swiss albino, females, in drinking water, site: lung, lesion: several types, types named in the paper, dosed 92 weeks, study length 92 weeks) is 1370 mg/kg/day; the TD50 (mouse, strain Swiss albino, males, in drinking water, site: blood vessels, lesion: several types, types named in the paper, dosed 81 weeks, study length 81 weeks) is 880 mg/kg/day; the TD50 (mouse, strain Swiss albino, males, in drinking water, site: kidney, lesion: adenoma, dosed 81 weeks, study length 81 weeks) is 10900 mg/kg/day. Besides, the TD50 was 38800 mg/kg/day (inactive) (mouse, strain Swiss albino, males, in drinking water, site: liver, lesion: hepatoma, dosed 81 weeks, study length 81 weeks); 1110 mg/kg/day (mouse, strain Swiss albino, males, in drinking water, site: lung, lesion: several types, types named in the paper, dosed 81 weeks, study length 81 weeks); 3450 mg/kg/day (rat, strain Fischer 344, females, in feed, site: any site (literature study), lesion: several types, types named in the paper, dosed 104 weeks, study length 105 weeks); 9640 mg/kg/day (rat, strain Fischer 344, females, in feed, site: liver, lesion: hepatocellular adenoma + hepatocellular carcinoma + neoplastic nodule, dosed 104 weeks, study length 105 weeks); 4890 mg/kg/day (rat, strain Fischer 344, females, in feed, site: lung, lesion: alveolar/bronchiolar adenoma, dosed 104 weeks, study length 105 weeks); 1840 mg/kg/day (rat, strain Fischer 344, females, in feed, site: uterus + uterus, endometrium, lesion: leiomyosarcoma + adenocarcinoma, NOS, dosed 104 weeks, study length 105 weeks). Besides, the TD50 is, setting by setting: (rat, strain Fischer 344, females, in feed, site: uterus, endometrium, lesion: adenocarcinoma, NOS, dosed 104 weeks, study length 105 weeks) 2500 mg/kg/day; (rat, strain Fischer 344, females, in feed, site: uterus, lesion: leiomyosarcoma, dosed 104 weeks, study length 105 weeks) 5270 mg/kg/day. Besides, for the setting “rat, strain Fischer 344, males, in feed, site: any site (literature study), lesion: several types, types named in the paper, dosed 104 weeks, study length 105 weeks”, the carcinogen call is “negative (inactive)”.

For `Oc1ccc(Cl)cc1Cl`, the carcinogen call (mouse, strain B6C3F1, females, in feed, site: any site (literature study), lesion: several types, types named in the paper, dosed 103 weeks, study length 104 weeks) was “negative (inactive)”; the carcinogen call (rat, strain Fischer 344, females, in feed, site: any site (literature study), lesion: several types, types named in the paper, dosed 103 weeks, study length 104 weeks) is “negative (inactive)”; the carcinogen call (rat, strain Fischer 344, males, in feed, site: any site (literature study), lesion: several types, types named in the paper, dosed 103 weeks, study length 104 weeks) was “negative (inactive)”. Also, the TD50 was 12400 mg/kg/day (inactive) (mouse, strain B6C3F1, males, in feed, site: forestomach, lesion: squamous-cell carcinoma + squamous-cell papilloma, dosed 103 weeks, study length 104 weeks); 458000 mg/kg/day (mouse, strain B6C3F1, males, in feed, site: liver, lesion: hepatocellular adenoma + hepatocellular carcinoma + neoplastic nodule, dosed 103 weeks, study length 104 weeks); 13300 mg/kg/day (mouse, strain B6C3F1, males, in feed, site: lung, lesion: alveolar/bronchiolar adenoma + alveolar/bronchiolar carcinoma, dosed 103 weeks, study length 104 weeks).

For `O=NN1CCCC1c1cccnc1` (stereo not drawn), the TD50 is, setting by setting: (hamster, strain Syrian Golden, females, in drinking water, site: respiratory system, lesion: papilloma, dosed 31 weeks, study length 96 weeks) 11.5 mg/kg/day; (hamster, strain Syrian Golden, males, in drinking water, site: liver, lesion: angiosarcoma, dosed 31 weeks, study length 96 weeks) 34.4 mg/kg/day; (hamster, strain Syrian Golden, males, in drinking water, site: respiratory system, lesion: papilloma, dosed 31 weeks, study length 96 weeks) 10.1 mg/kg/day.

`S=c1[nH]c2ccccc2s1`: the carcinogen call runs as follows: (mouse, strain B6AKF1, females, oral dosing, site: any site (literature study), lesion: several types, types named in the paper, dosed 76 weeks, study length 76 weeks) “negative (inactive)”; (mouse, strain B6AKF1, females, oral dosing, site: liver, lesion: hepatoma, dosed 76 weeks, study length 76 weeks) “negative (inactive)”; (mouse, strain B6AKF1, females, oral dosing, site: lung, lesion: adenoma, dosed 76 weeks, study length 76 weeks) “negative (inactive)”; (mouse, strain B6AKF1, males, oral dosing, site: liver, lesion: hepatoma, dosed 76 weeks, study length 76 weeks) “negative (inactive)”; (mouse, strain B6AKF1, males, oral dosing, site: lung, lesion: adenoma, dosed 76 weeks, study length 76 weeks) “negative (inactive)”; (mouse, strain B6C3F1, females, oral dosing, site: liver, lesion: hepatoma, dosed 76 weeks, study length 76 weeks) “negative (inactive)”. Further, the TD50 (mouse, strain B6AKF1, males, oral dosing, site: any site (literature study), lesion: several types, types named in the paper, dosed 76 weeks, study length 76 weeks) is 105 mg/kg/day (inactive); the TD50 (mouse, strain B6C3F1, females, by gavage, site: liver, lesion: hepatocellular adenoma + hepatocellular carcinoma + neoplastic nodule, dosed 103 weeks, study length 104 weeks) was 2160 mg/kg/day; the TD50 (mouse, strain B6C3F1, females, by gavage, site: liver, lesion: hepatocellular adenoma + hepatocellular carcinoma, dosed 103 weeks, study length 104 weeks) amounted to 2160 mg/kg/day; the TD50 (mouse, strain B6C3F1, females, oral dosing, site: any site (literature study), lesion: several types, types named in the paper, dosed 76 weeks, study length 76 weeks) is 283 mg/kg/day (inactive); the TD50 (mouse, strain B6C3F1, females, oral dosing, site: lung, lesion: adenoma, dosed 76 weeks, study length 76 weeks) was 283 mg/kg/day (inactive); the TD50 (mouse, strain B6C3F1, males, by gavage, site: any site (literature study), lesion: several types, types named in the paper, dosed 103 weeks, study length 104 weeks) is 3330 mg/kg/day (inactive). The TD50 runs as follows: (mouse, strain B6C3F1, males, by gavage, site: liver, lesion: hepatocellular adenoma + hepatocellular carcinoma + neoplastic nodule, dosed 103 weeks, study length 104 weeks) 3700 mg/kg/day; (mouse, strain B6C3F1, males, oral dosing, site: any site (literature study), lesion: several types, types named in the paper, dosed 76 weeks, study length 76 weeks) 17 mg/kg/day (inactive); (mouse, strain B6C3F1, males, oral dosing, site: liver, lesion: hepatoma, dosed 76 weeks, study length 76 weeks) 56.2 mg/kg/day (inactive); (mouse, strain B6C3F1, males, oral dosing, site: lung, lesion: adenoma, dosed 76 weeks, study length 76 weeks) 120 mg/kg/day (inactive); (rat, strain Fischer 344, females, by gavage, site: adrenal medulla + pituitary gland, anterior, lesion: pheochromocytoma + adenoma, NOS, dosed 103 weeks, study length 104 weeks) 247 mg/kg/day; (rat, strain Fischer 344, females, by gavage, site: adrenal medulla, lesion: pheochromocytoma, dosed 103 weeks, study length 104 weeks) 805 mg/kg/day. The TD50 (rat, strain Fischer 344, females, by gavage, site: any site (literature study), lesion: several types, types named in the paper, dosed 103 weeks, study length 104 weeks) is 576 mg/kg/day; the TD50 (rat, strain Fischer 344, females, by gavage, site: pituitary gland, anterior, lesion: adenoma, NOS, dosed 103 weeks, study length 104 weeks) is 343 mg/kg/day; the TD50 (rat, strain Fischer 344, males, by gavage, site: adrenal medulla + multiple organs + pancreas + preputial gland, lesion: pheochromocytoma + pheochromocytoma, malignant + mononuclear-cell leukemia + acinar-cell adenoma + adenoma, NOS + carcinoma, NOS, dosed 103 weeks, study length 104 weeks) was found to be 157 mg/kg/day; the TD50 (rat, strain Fischer 344, males, by gavage, site: adrenal medulla, lesion: pheochromocytoma + pheochromocytoma, malignant, dosed 103 weeks, study length 104 weeks) was 394 mg/kg/day; the TD50 (rat, strain Fischer 344, males, by gavage, site: any site (literature study), lesion: several types, types named in the paper, dosed 103 weeks, study length 104 weeks) is 136 mg/kg/day; the TD50 (rat, strain Fischer 344, males, by gavage, site: multiple organs + tunica albuginea, lesion: mesothelioma, malignant + mesothelioma, NOS, dosed 103 weeks, study length 104 weeks) amounted to 3200 mg/kg/day. The TD50 (rat, strain Fischer 344, males, by gavage, site: multiple organs, lesion: mononuclear-cell leukemia, dosed 103 weeks, study length 104 weeks) is 401 mg/kg/day; the TD50 (rat, strain Fischer 344, males, by gavage, site: pancreas, lesion: acinar-cell adenoma, dosed 103 weeks, study length 104 weeks) was 345 mg/kg/day; the TD50 (rat, strain Fischer 344, males, by gavage, site: pituitary gland, anterior, lesion: adenoma, NOS, dosed 103 weeks, study length 104 weeks) was 333 mg/kg/day; the TD50 (rat, strain Fischer 344, males, by gavage, site: preputial gland, lesion: adenoma, NOS + carcinoma, NOS, dosed 103 weeks, study length 104 weeks) is 1580 mg/kg/day; the TD50 (rat, strain Fischer 344, males, by gavage, site: preputial gland, lesion: adenoma, NOS, dosed 103 weeks, study length 104 weeks) is 1710 mg/kg/day; the TD50 (rat, strain Fischer 344, males, by gavage, site: subcutaneous tissue, lesion: fibroma + neurofibroma, dosed 103 weeks, study length 104 weeks) stood at 1900 mg/kg/day. Moreover, the TD50 came to 2200 mg/kg/day (rat, strain Fischer 344, males, by gavage, site: subcutaneous tissue, lesion: fibroma, dosed 103 weeks, study length 104 weeks); 1730 mg/kg/day (rat, strain Fischer 344, males, by gavage, site: subcutaneous tissue, lesion: fibrosarcoma + fibroma + neurofibroma + sarcoma, NOS, dosed 103 weeks, study length 104 weeks); 240 mg/kg/day (rat, strain Fischer 344, males, by gavage, site: testis, lesion: interstitial-cell tumor, dosed 103 weeks, study length 104 weeks).

Values taken from PubChem BioAssay AID1745844 (Carcinogenic Potency Database (CPDB), 2022).
